Measurements as given in patent EP4682144A1, “SOLID FORM OF PYRROLIDONE DERIVATIVE AS GLUCOKINASE ACTIVATOR” (Hua Medicine (Shanghai) Ltd., priority 2023, dated 2024).

Legend:
Format in all cases: physicochemical
[1] = High-humidity stability test (90% RH, HPLC)
Description: (§1) The resulting sample was sampled at day 6, day 14 and day 34 for HPLC analysis.

[2] = Dissolution stability in different pH and biologically relevant media (XRPD before and after); conditions: pH 1.0, 1.2, 3.0, 4.5, 5.0, 6.8, 7.0, 7.4, 9.0, FaSSGF (pH 1.6), FaSSIF (pH 6.5), FeSSIF (pH 5.0)
[3] = Photostability test (direct sunlight, HPLC)
Description: The resulting sample was sampled at day 4 and day 15 for HPLC analysis.

[4] = High-temperature stability test (60°C, HPLC)
Description: as §1

[5] = Dynamic vapour sorption (DVS) test
Description: A certain amount of powder was taken and put into a sample pan, and hygroscopicity of the sample was evaluated with DVS according to the following instrument method:

[6] = Preliminary solubility test in solvents at room temperature; conditions: listed as crystal form A of the free state
Description: Table 10 Solubility range of the starting material sample at room temperature
The solubility range in the corresponding solvent was calculated based on the mass of the sample and the volume of the added solvent, as shown in Table 28. The data were used as a base to guide the selection of solvent in screening tests. Table 28 Preliminary solubility of crystal form A of the free state at room temperature
The solubility range in the corresponding solvent was calculated based on the mass of the sample and the volume of the added solvent, as shown in Table 35. The data were used as a base to guide the selection of solvent in the screening tests.

[7] = Forced degradation stability test (heat, humidity and heat, light)
Description: Crystal form A of the free state was placed under the following different conditions for the forced degradation stability test: • About 10 mg of the sample powder was weighed into a vial and placed under the conditions of 50 °C, 80°C, and 40 °C/75%RH (unsealed) for 1 day, 2 weeks, and 4 weeks, respectively. And then, the thermal stability was evaluated. • About 10 mg of the sample powder was weighed and placed in a transparent vial, an amber vial, and a transparent vial sealed with aluminum foil, respectively. Those vials were placed in a light box for 10 days, with a total illumination of 1.2×10^6 Lux·hr and a near-UV energy not less than 200w·hr/m^2, for photostability evaluation.
The samples were taken at each time point for HPLC and XRPD analysis to evaluate the chemical and physical stability.

## CC(C)C[C@@H](C(=O)Nc1ccn(C[C@@H](O)COC(=O)c2cccnc2)n1)N1CC(Oc2ccccc2Cl)=CC1=O [Free state crystal form A, (R)-3-(3-((S)-2-(4-(2-chlorophenoxy)-2-oxo-2,5-dihydro-1H-pyrrol-1-yl)-4-methylpentanamido)-1H-pyrazol-1-yl)-2-hydroxypropyl nicotinate]
[1]; 0 hour
  Purity (Area%): 98.17 Area%
[1]; 90% relative humidity for 14 days
  stability at high humidity: still stable
[1]; 90%RH, Day 6, without cover
  Purity (Area%): 98.99 Area%
[1]; 90%RH, Day 14, without cover
  Purity (Area%): 99.09 Area%
[2]
  crystal form before and after solubility test (XRPD): does not change
[3]; 0 hour
  Purity (Area%): 98.17 Area%
[3]; Photostability Day 4, direct sunlight
  Purity (Area%): 99.07 Area%
[3]; Photostability Day 15, direct sunlight
  Purity (Area%): 99.10 Area%
[3]; sunlight for 15 days
  stability under sunlight: still stable
[4]; 0h
  Purity (Area%): 98.17 Area%
[4]; 60°C for 14 days
  stability at high temperature: still stable
[4]; 60°C, Day 6, without cover
  Purity (Area%): 99.03 Area%
[4]; 60°C, Day 14, without cover
  Purity (Area%): 99.11 Area%
[5]; DVS, 25 °C, 80%RH
  Water sorption capacity at 80%RH, %: 0.3556%
[5]; DVS, 25 °C, 90%RH
  Water sorption capacity at 90%RH, %: 0.4782%
[5]; DVS, 25 °C, 95%RH
  Water sorption capacity at 95%RH, %: 0.6525%
[5]; relative humidity of 95%
  moisture-induced weight gain: less than 0.7%
[5]; relative humidity of less than or equal to 90%, listed as crystal form A of the free state
  moisture-induced weight gain: less than 0.5%
[6]; 1,4-Dioxane, room temperature
  Solubility (mg/mL): S>40.0 mg/mL
[6]; Acetone, room temperature
  Solubility (mg/mL): S>40.0 mg/mL
[6]; CHCl3, room temperature
  Solubility (mg/mL): S>40.0 mg/mL
[6]; DCM, room temperature
  Solubility (mg/mL): S>40.0 mg/mL
[6]; DMAc, room temperature
  Solubility (mg/mL): S>40.0 mg/mL
[6]; DMSO, room temperature
  Solubility (mg/mL): S>42.0 mg/mL
[6]; H2O, room temperature
  Solubility (mg/mL): S<1.0 mg/mL
[6]; MTBE, room temperature
  Solubility (mg/mL): S<1.0 mg/mL
[6]; MeOH, room temperature (25±3 °C)
  Solubility (mg/mL): S>42.0 mg/mL
[6]; NMP, room temperature
  Solubility (mg/mL): S>40.0 mg/mL
[6]; THF, room temperature
  Solubility (mg/mL): S>40.0 mg/mL
[6]; Toluene, room temperature
  Solubility (mg/mL): S<1.0 mg/mL
[6]; n-Heptane, room temperature
  Solubility (mg/mL): S<1.1 mg/mL
[7]; 40°C/75%RH (unsealed), 2 weeks, HPLC
  Purity, %: 99.15%
[7]; 40°C/75%RH (unsealed), 4 weeks, HPLC
  Purity, %: 99.15%
[7]; 40°C/75%RH (unsealed), 24 hours, HPLC
  Purity, %: 99.09%
[7]; 50°C, 2 weeks, HPLC
  Purity, %: 99.10%
[7]; 50°C, 4 weeks, HPLC
  Purity, %: 99.11%
[7]; 50 °C, 80°C, 40 °C/75%RH (unsealed)
  high-temperature and humidity-thermal stability: excellent
[7]; 50 °C, 80°C, 40 °C/75%RH for 1 day, 2 weeks, 4 weeks, light box 10 days
  crystalline form under forced degradation test conditions (XRPD): does not change
[7]; 50°C, 24 hours, HPLC
  Purity, %: 99.08%
[7]; 80°C, 2 weeks, HPLC
  Purity, %: 99.12%
[7]; 80°C, 4 weeks, HPLC
  Purity, %: 99.14%
[7]; 80°C, 24 hours, HPLC
  Purity, %: 99.12%
[7]; Light-amber vial, 10 days, light box, […]10^6 Lux·hr
  Purity, %: 99.17%
[7]; Light-transparent vial sealed with aluminum foil, 10 days, light box, […]10^6 Lux·hr
  Purity, %: 99.17%
[7]; Light-transparent vial, 10 days, light box, […]10^6 Lux·hr
  Purity, %: 99.10%
[7]; Starting, 0h, HPLC
  Purity, %: 99.10%
[7]; light box 10 days, […]10^6 Lux·hr
  effect of light on the stability: no effect
